Each structure is given as a SMILES string. Structures can show the parent of a compound that is named as a salt.

What all share (format): in vivo
The subject of one assay is Agropyron. The assay is described as follows: Post-emergence test/greenhouse. The note with it: 60 g ai./ha, greenhouse, after three weeks. As for the experimental part:
(§1) Post-emergence Test/greenhouse Solvent: 5 parts by weight of acetone Emulsifier: 1 part by weight of alkylaryl polyglycol ether To produce a suitable preparation of active compound, 1 part by weight of active compound is mixed with the stated amount of solvent, the stated amount of emulsifier is added and the concentrate is diluted with water to the desired concentration. Test plants which have a height of 5-15 cm are sprayed with the preparation of active compound such that the particular amounts of active compound desired are applied per unit area. The concentration of the spray liquor is chosen so that the particular amounts of active compound desired are applied in 500 l of water/ha. After three weeks, the degree of damage to the plants is assessed in % damage in comparison to the development of the untreated control. The figures denote: 0%=no effect (like untreated control) 100% total destruction

For another assay, the system named is Alopecurus. The assay is described as follows: Post-emergence test/greenhouse. The note with it: 60 g ai./ha, greenhouse, after three weeks. The method, then: as §1
The next assay has as its system Avena. The assay is described as follows: Post-emergence test/greenhouse. The settings on record: 60 g ai./ha, greenhouse, after three weeks. As for the experimental part: as §1
Assay [1] has as its system Bromus. The assay is described as follows: Post-emergence test/greenhouse. The settings on record: 60 g ai./ha, greenhouse, after three weeks. As for the experimental part:
as §1

In another assay the test system is Lolium. The assay is described as follows: Post-emergence test/greenhouse. The note with it: 60 g ai./ha, greenhouse, after three weeks. As for the experimental part:
as §1

For the next assay, the system named is Wheat. The assay is described as follows: Post-emergence test/greenhouse. The settings on record: greenhouse. As for the experimental part:
as §1

A further assay relates to Amaranthus. The assay is described as follows: Pre-emergence test/greenhouse. The settings on record: 15 g ai./ha, greenhouse, after three weeks. The method, then:
(§2) Pre-emergence Test/greenhouse Solvent: 5 parts by weight of acetone Emulsifier: 1 part by weight of alkylaryl polyglycol ether To produce a suitable preparation of active compound, 1 part by weight of active compound is mixed with the stated amount of solvent, the stated amount of emulsifier is added and the concentrate is diluted with water to the desired concentration. Seeds of the test plants are sown in normal soil. After about 24 hours, the soil is sprayed with the preparation of active compound such that the particular amount of active compound desired is applied per unit area. The concentration of the spray liquor is chosen so that the particular amount of active compound desired is applied in 500 litres of water per hectare. After three weeks, the degree of damage to the plants is tested in % damage in comparison to the development of the untreated control. The figures denote: 0% no effect (like untreated control) 100%=total destruction

Assay [2] deals with Bromus. The assay is described as follows: Pre-emergence test/greenhouse. The note with it: greenhouse, after three weeks. As for the experimental part: as §2
For a further assay, the system named is Poa. The assay is described as follows: Pre-emergence test/greenhouse. The settings on record: 15 g ai./ha, greenhouse, after three weeks. The method, then: as §2
For a further assay, the system named is Setaria. The assay is described as follows: Pre-emergence test/greenhouse. The note with it: 30 g ai./ha, greenhouse, after three weeks. The method, then: as §2
Assay [3] relates to winter wheat. The assay is described as follows: Post emergence tests/outdoors (Example C, Germany and France), crop compatibility. The settings on record: 42 g of a.i./ha to 45 g of a.i./ha, post-emergence (spring), outdoors, 1 to 8 weeks after the treatment, 439 tests. The method, then: Post Emergence Tests/outdoors Under outdoor conditions, the sodium salt of the compound of the formula (I) was tested in winter wheat in Germany and France against economically important weeds. The small-plot experiments were carried out on cultivated land under agricultural use, with cultivation and climate conditions which can be considered to be representative for the period of the trial. Areas with particularly extensive weed growth were chosen by way of preference. The active compound was applied by the post-emergence method (spring) across the area by the spray method, with an average droplet size. To produce a useful preparation of active compound, the active compound was formulated as 70 WP or 70 WG (70% w/w water-dispersible powder or granules) and applied with customary amounts of water. To assess the crop compatibility, from 1 to 8 weeks after the treatment, plant growth inhibitions or […] of the leaf area were assessed in % damage in comparison to the development of the untreated control. At different intervals after the treatment, the herbicidal activity was assessed as % reduction in comparison to the untreated control, based on the weed development. The figures denote: 0%=no damage of the crops or no herbicidal effect, 100%=total destruction of the crops or the weeds.

In assay [4] the test system is winter wheat. The assay is described as follows: Post-emergence tests/outdoors (Example D, USA), crop compatibility. The settings on record: 42 g a.i./ha to 45 g a.i./ha, post-emergence (autumn), outdoors, with surface-active substances (SAS), 78 tests. As for the experimental part: The active compound was applied by the post-emergence method (spring) across the area by the spray method, with an average droplet size. To produce a useful preparation of active compound, the active compound was formulated as 70 WP or 70 WG (70% w/w water-dispersible powder or granules) and applied with customary amounts of water. To assess the crop compatibility, from 1 to 8 weeks after the treatment, plant growth inhibitions or […] of the leaf area were assessed in % damage in comparison to the development of the untreated control. At different intervals after the treatment, the herbicidal activity was assessed as % reduction in comparison to the untreated control, based on the weed development. The figures denote: 0%=no damage of the crops or no herbicidal effect, 100%=total destruction of the crops or the weeds. Post-emergence Tests/outdoors The sodium salt of the compound of the formula (I) was tested under outdoor conditions in the main cultivation areas of winter wheat in the USA (Pacific Northwest, North Central Area, Central Plains) against economically important weeds. The design, the practice and the evaluation of the experiments corresponded to Example C. The active compound was applied in autumn. Wetting of the plants was improved by addition of commercial surface-active substances (SAS) in the concentrations recommended by the respective manufacturer.

Another assay concerns Phalaris minor. The assay is described as follows: Post-emergence test/outdoors (Example E, California). The settings on record: 42 g a.i./ha to 45 g a.i./ha, + SAS, outdoors, irrigation wheat growing area, 2 tests.

For the compound `CCCOc1nn(C(=O)NS(=O)(=O)c2ccccc2C(=O)OC)c(=O)n1C` [(I)-Na-salt, 2-(2-methoxycarbonyl-phenylsulphonylaminocarbonyl)-4-methyl-5-propoxy-2,4-dihydro-3H-1,2,4-triazol-3-one], the “degree of damage to the plants (% damage in comparison to the untreated control)” value with Agropyron came out at 100%; in the assay on Alopecurus, 90%; with Avena, 80%; in the assay with Bromus [1] it was 95%; in the assay with Lolium it was 80%; in the assay on Wheat (Wheat, 60 g ai./ha, after three weeks), 0%. In addition, the “degree of damage to the plants (% damage in comparison to the untreated control)” value in the assay on Amaranthus is listed as 95%; in the assay on Bromus [2] (15 g ai./ha), 90%; in the assay with Bromus [2] (30 g ai./ha) it was 90%; in the assay on Poa, 90%; with Setaria, 90%. Besides, in the assay on Wheat (sodium salt of (I) at 60 g/ha), the “compatibility with crop plants (wheat), in words” value was “very good compatibility”. For the same compound, the “Damage to the crop (wheat)” value in the assay with winter wheat [3] and in the assay with winter wheat [4] was 2% each time. In addition, the “herbicidal effect (%)” value in the assay with Phalaris minor came out at 93%.

The record behind these values is patent US6395684B1, “Selective herbicides based on a substituted phenyl sulfonyl amino carbonyl triazolinone” (Bayer Aktiengesellschaft, priority 1998, dated 2002).
